Data published in US9408393B2, “Bismuth-thiols as antiseptics for agricultural, industrial and other uses” (Microbion Corporation, priority 2010, dated 2016).

Legend:
[1] = test system: S. epidermidis S2400-1 biofilm; experiment: Biofilm prevention, BisEDT-antibiotic combinations; type: cell-based, Staphylococcus epidermidis; details: for Δ (0.05 BE), biofilm prevention: 0.05 μg/ml BisEDT
Protocol: (§1) S. epidermidis grown in TSB+2% glucose in polystyrene plates for 48 h at 37° C. Gatifloxacin (GF), clindamycin (CM), minocycline (MC), gentamicin (GM), vancomycin (VM), cefazolin (CZ), nafcillin (NC), and rifampicin (RP). […]

S. epidermidis biofilm = experiment: Biofilm prevention concentration (BPC), BisEDT and antibiotics; type: cell-based, Staphylococcus epidermidis; details: TSB + 2% glucose, 48 h
Protocol: as §1

S. epidermidis = experiment: Broth dilution MIC/MBC, BT-antibiotic combinations; type: cell-based, Staphylococcus epidermidis; details: for Δ, MIC / Δ (0.05 BE), MIC: 0.05 μg/ml BisEDT; for Δ (0.1 BE), MBC: 0.1 μg/ml BisEDT
Protocol: Materials & Methods. Susceptibility studies were performed by broth dilution in 96-well tissue culture plates (Nalge Nunc International, Denmark) in accordance with NCCLS protocols (National Committee for Clinical Laboratory Standards. (1997). Methods for Dilution Antimicrobial Susceptibility Tests for Bacteria that Grow Aerobically: Approved Standard M7-A2 and Informational Supplement M100-S10. NCCLS, Wayne, Pa., USA).
Briefly, overnight bacterial cultures were used to prepare 0.5 McFarland standard suspensions, which were further diluted 1:50 (˜2×10^6 cfu/mL) in cation-adjusted Mueller-Hinton broth medium (BBL, Cockeysville, Md., USA). BTs (prepared as described above) and antibiotics were added at incremental concentrations, keeping the final volume constant at 0.2 mL. Cultures were incubated for 24 h at 37° C. and turbidity was assessed by absorption at 630 nm using an ELISA plate reader (Biotek Instruments, Winooski, Vt., USA) according to the manufacturer's recommendations. […] Viable bacterial counts (cfu/mL) were determined by standard plating on nutrient agar.
The checkerboard method was used to assess the activity of antimicrobial combinations. The fractional inhibitory concentration index (FICI) and the fractional bactericidal concentration index (FBCI) were calculated, according to Eliopoulos et al. (Eliopoulos and Moellering, (1996) Antimicrobial combinations. In Antibiotics in Laboratory Medicine (Lorian, V., Ed.), pp. 330-96, Williams and Wilkins, Baltimore, Md., USA). Synergy was defined as an FICI or FBCI index of […], no interaction at >0.5-4 and antagonism at >4 (Odds, F C (2003) Synergy, antagonism, and what the chequerboard puts between them. Journal of Antimicrobial Chemotherapy 52:1). Synergy was also defined conventionally as ≧4-fold decrease in antibiotic concentration.

[2] = test system: Streptococcus pneumoniae (SP, PRSP); experiment: Single-point BisEDT-antibiotic combination FICI; details: PRSP 5348
Pseudomonas aeruginosa = experiment: Single-point BisEDT-antibiotic combination FICI; type: cell-based; details: PA 1380
Enterococcus faecalis = experiment: Single-point BisEDT-antibiotic combination FICI; type: cell-based; details: E Fc 3121
Burkholderia cepacia = experiment: Single-point BisEDT-antibiotic combination FICI; type: cell-based; details: Bcep 1756
Klebsiella pneumoniae = experiment: Single-point BisEDT-antibiotic combination FICI; type: cell-based; details: KP 1231
Acinetobacter baumanii = experiment: Single-point BisEDT-antibiotic combination FICI; type: cell-based; details: Abau 2594
[3] = test system: Staphylococcus aureus (SA, MRSA); experiment: Single-point BisEDT-antibiotic combination FICI; type: cell-based
Bukholderia multivorans = experiment: Single-point BisEDT-antibiotic combination FICI; type: cell-based; details: Bmult 5665
Escherichia coli = experiment: Single-point BisEDT-antibiotic combination FICI; type: cell-based
[4] = S. epidermidis ATCC 35984, BisEDT 0.0 μg/ml
[5] = S. epidermidis ATCC 35984, BisEDT 0.05 μg/ml
[6] = S. epidermidis S2400-1, BisEDT 0 μg/ml
[7] = S. epidermidis S2400-1, BisEDT 0.0 μg/ml
[8] = S. epidermidis S2400-1, BisEDT 0.05 μg/ml
[9] = S. epidermidis S2400-1, BisEDT 0.1 μg/ml

Row | Compound | Δ (0.05 BE), biofilm prevention [1] | Biofilm Prevention (antibiotic concentration) ([1]; BisEDT 0 μg/ml) [µg/mL] | Biofilm Prevention (antibiotic concentration) ([1]; BisEDT 0.05 μg/ml) [µg/mL] | Biofilm Prevention (antibiotic concentration) ([1]; BisEDT 0.1 μg/ml) [µg/mL] | Δ, MIC (S. epidermidis; S. epidermidis ATCC 35984) | MIC (S. epidermidis; [4]) [µg/mL] | MIC (S. epidermidis; [5]) [µg/mL] | Δ (0.05 BE), MIC (S. epidermidis; S. epidermidis S2400-1) | Δ (0.1 BE), MBC (S. epidermidis; S. epidermidis S2400-1) | MIC (S. epidermidis; [6]) [µg/mL] | MBC (S. epidermidis; [7]) [µg/mL] | MIC (S. epidermidis; [8]) [µg/mL] | MBC (S. epidermidis; [9]) [µg/mL] | MIC (S. epidermidis; [9]) [µg/mL] | further results
1 | CCC[C@@H]1C[C@@H](C(=O)N[C@@H]([C@H]2O[C@H](SC)[C@H](O)[C@@H](O)[C@H]2O)[C@H](C)Cl)N(C)C1 [Clindamycin, clindamycin] | 24.9 | 1195 | 48 | 12 | 2 | 2048.00 | 1024.00 | 2.67 | 2.67 | 2048 | 2048 | 768 | 768 | 24 | Fold reduction of BPC in presence of subMIC BisEDT (S. epidermidis biofilm): 50 fold
2 | CN(C)c1ccc(O)c2c1C[C@H]1C[C@H]3[C@H](N(C)C)C(O)=C(C(N)=O)C(=O)[C@@]3(O)C(O)=C1C2=O [Minocycline, minocycline] | 1.2 | 0.85 | 0.73 | 0.08 | 3.3 | 0.13 | 0.04 | 2.63 | 1.00 | 1.13 | 1.20 | 0.43 | 1.20 | 0.10 | FICI, single-point BisEDT-antibiotic combination [2]: 0.46; FICI, single-point BisEDT-antibiotic combination (Pseudomonas aeruginosa): 0.99; FICI, single-point BisEDT-antibiotic combination (Enterococcus faecalis): 1.11; FICI, single-point BisEDT-antibiotic combination (Burkholderia cepacia): 2.23; FICI, single-point BisEDT-antibiotic combination (Klebsiella pneumoniae): 1.29; FICI, single-point BisEDT-antibiotic combination (Acinetobacter baumanii): 1.29; FICI, single-point BisEDT-antibiotic combination ([3]; MRSA 773): 1.23; FICI, single-point BisEDT-antibiotic combination ([3]; SA 100): 1.09; FICI, single-point BisEDT-antibiotic combination (Bukholderia multivorans): 1.12; FICI, single-point BisEDT-antibiotic combination (Escherichia coli; EC 102): 1.37; FICI, single-point BisEDT-antibiotic combination (Escherichia coli; EC 2232): 1.04
